Assay results reported in paper PMC11003481, “Synthesis, biological evaluation, and computational studies of N-benzyl pyridinium–curcumin derivatives as potent AChE inhibitors with antioxidant activity” (Journal of Enzyme Inhibition and Medicinal Chemistry, 2023).

Legend:
[1] = target: T1, butyrylcholinesterase (eqBChE, from equine serum) (Equus caballus, UniProt P81908); assay: biochemical; details: mean ± SEM of three independent experiments, duplicate samples, read-out: IC50 ± SEM BChE
T1 construct: butyrylcholinesterase (eqBChE, from equine serum); from tissue; host or cells: equine serum
T1 sequence (P81908 whole entry): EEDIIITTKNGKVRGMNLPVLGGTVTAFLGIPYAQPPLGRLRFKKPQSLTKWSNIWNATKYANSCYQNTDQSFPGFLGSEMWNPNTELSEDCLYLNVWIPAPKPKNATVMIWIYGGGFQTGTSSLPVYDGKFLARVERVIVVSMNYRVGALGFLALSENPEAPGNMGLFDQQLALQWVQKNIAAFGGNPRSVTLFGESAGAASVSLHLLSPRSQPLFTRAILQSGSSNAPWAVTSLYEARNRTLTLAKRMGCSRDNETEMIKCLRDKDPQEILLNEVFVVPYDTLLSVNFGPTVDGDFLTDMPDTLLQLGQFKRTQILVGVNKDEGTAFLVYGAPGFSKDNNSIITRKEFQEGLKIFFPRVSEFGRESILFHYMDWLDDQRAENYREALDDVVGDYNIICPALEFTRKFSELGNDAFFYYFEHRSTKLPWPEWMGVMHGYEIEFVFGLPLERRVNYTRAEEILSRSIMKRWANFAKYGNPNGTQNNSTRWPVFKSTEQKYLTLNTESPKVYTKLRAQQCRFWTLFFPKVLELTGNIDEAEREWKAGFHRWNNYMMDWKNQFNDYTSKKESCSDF
Method: (§1) The AChE and BChE inhibitory activity assays were performed using a BioTek Epoch 2 microplate spectrophotometer in clear, flat-bottom 96-well plates. […] To each well, 295 µL phosphate buffer pH 8.0, 10 µL enzyme solution (AChE/BChE), and 10 µL target compound solutions were added together and allowed to stand for 4 min at room temperature. Then, 10 µL of 0.01 M solution freshly prepared Ellman’s reagent 5,5′-dithiobis(2-nitrobenzoic acid) (DTNB) was added to each well. The reaction in the wells was started by the addition of 2 µL of 0.075 M solution freshly prepared substrate (ATCh (acetylthiocholine iodide)/BTCh (S-butyrylthiocholine iodide)) solution. The solution was mixed immediately and incubated for 2:30 min for AChE or for 5 min for BChE inside the microplate reader at 26 °C. […] The IC50 values were calculated graphically by nonlinear regression analysis of inhibition curves that were obtained by plotting the logarithm of the inhibitor concentrations versus the percentage of inhibition (log(inhibitor) vs. normalised response) using GraphPad Prism 8 software (See Supplementary Information for details).

[2] = target: acetylcholinesterase (eeAChE, from Electrophorus electricus) (Electrophorus electricus, UniProt O42275); assay: biochemical; details: for Selectivity Index (SI) (AChE): Selectivity ratio [IC50(BChE)/IC50(AChE)]; for IC50: eeAChE, mean ± SEM of three independent experiments, duplicate samples, read-out: IC50 ± SEM AChE
Sequence of acetylcholinesterase (eeAChE, from Electrophorus electricus) (O42275 24-633): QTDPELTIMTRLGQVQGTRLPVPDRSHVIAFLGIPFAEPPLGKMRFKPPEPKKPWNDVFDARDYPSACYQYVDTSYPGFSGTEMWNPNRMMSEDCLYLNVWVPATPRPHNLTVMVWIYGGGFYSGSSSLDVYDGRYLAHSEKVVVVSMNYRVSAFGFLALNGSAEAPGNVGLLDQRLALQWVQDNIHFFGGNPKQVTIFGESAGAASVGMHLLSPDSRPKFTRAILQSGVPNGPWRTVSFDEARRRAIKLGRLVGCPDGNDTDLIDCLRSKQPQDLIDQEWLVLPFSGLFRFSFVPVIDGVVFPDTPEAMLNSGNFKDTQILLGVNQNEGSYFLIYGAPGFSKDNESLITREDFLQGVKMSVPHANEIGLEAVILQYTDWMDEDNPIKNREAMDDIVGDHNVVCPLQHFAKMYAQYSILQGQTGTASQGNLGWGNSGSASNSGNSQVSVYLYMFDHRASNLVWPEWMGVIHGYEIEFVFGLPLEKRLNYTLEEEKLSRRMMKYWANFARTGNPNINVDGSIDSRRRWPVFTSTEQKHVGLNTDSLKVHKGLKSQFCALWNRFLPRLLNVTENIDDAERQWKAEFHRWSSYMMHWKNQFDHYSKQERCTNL
Method: as §1

eeAChE = eeAChE (Electrophorus electricus, UniProt O42275); assay: biochemical; format: biochemical; details: from slopes of Lineweaver-Burk plots versus inhibitor concentration; substrate ATCh; read-out: Ki ± SEM eeAChE
Sequence of eeAChE (O42275 24-633): as above
Method: The slopes of the Lineweaver-Burk reciprocal plots against the concentrations of the compound (inhibitor) were plotted to obtain the Ki values for the prepared compounds (Table 1). The value at which the line intersects the x-axis is -Ki.
The assay was performed in triplicate using different inhibitor concentrations. […] The assay was carried out in clear, flat-bottom 96-well plates, to which 5 µL distilled water was added to all wells of columns 2–3, rows B-F. Then, 5 µL of the lowest concentration of inhibitor solution was added to the wells of columns 4–5, 5 µL of the median concentration of inhibitor solution was added to the wells of columns 6–7, and 5 µL of the highest concentration of inhibitor solution was added to the wells of columns 8–9. Next, 275 μL enzyme solution was added to the wells, and the plates were incubated for 4 min. Then, 10 μL 2.5 mM DTNB was added to the wells, followed by 10 μL of 32, 16, 8, 4, or 2 mM ATCh solutions to initiate the reactions. The plates were placed in a microplate reader for direct kinetic measurements.
The inhibition constant (Ki) for each inhibitor was calculated by averaging the ATCh hydrolysis rates from three independent experiments. Using GraphPad Prism 8 software, nonlinear regression was used to calculate the Km and Vmax values of the Michaelis-Menten kinetics by plotting [substrate] versus velocity. For the Lineweaver-Burk plots, linear regression was used to plot [1/ATCh] versus […]. Finally, the Ki values were obtained by plotting the slopes against [inhibitor] [20].

[3] = ABTS radical cation decolorisation antioxidant assay
Method: The antioxidant activity was determined using a radical cation (ABTS^.+) decolorisation assay, as described by Xiao et al.[21] with a few modifications. The assay used a BioTek Epoch 2 microplate spectrophotometer (Agilent, USA) with clear, flat-bottom 96-well plates. The 7 mmol/L ABTS^.+ stock solution was prepared by dissolving 96.02 mg ABTS in acetic acid buffer (pH 4.5) and to a final volume of 25 ml, which was kept in the dark at 0–4 °C. A 2.45 mmol/L potassium persulfate (K2S2O8) stock solution was prepared by dissolving 66.24 mg K2S2O8 in acetic acid buffer solution with pH 4.5, and then diluted to 100 ml and kept in the dark at 0–4 °C. The ABTS working solution was prepared by mixing similar quantities of 7 mmol/L ABTS and 2.45 mmol/L K2S2O8. This solution was stored in a dark cabinet for 16 h before use, when it was diluted with distilled water to obtain an absorbance of 0.70 at 734 nm. In a clear, flat-bottom 96-well plate, 200 μL of ABTS working solution and 10.0 μL sample solution at different concentrations (0.0312–0.5 mg/mL) were mixed well and incubated in the dark for 7 min before the absorbance was measured at 734 nm using a microplate reader. A blank was run for each assay, and all measurements were performed after 7 min. The ABTS scavenging capacity of inhibitors was compared with that of trolox and α-tocopherol. […]

Row | SMILES | IC50 [1] [nM] | Selectivity Index (SI) (AChE) [2] | IC50 [2] [nM] | Ki (eeAChE) [nM] | ABTS Inhibition % ([3]; 0.0312 mg/mL) [%] | ABTS Inhibition % ([3]; 0.0625 mg/mL) [%] | ABTS Inhibition % ([3]; 0.125 mg/mL) [%] | ABTS Inhibition % ([3]; 0.25 mg/mL) [%] | ABTS Inhibition % ([3]; 0.5 mg/mL) [%]
1 | COc1cc(/C=C/C(=O)/C=C/c2cc[n+](Cc3ccc(F)cc3)cc2)ccc1O [7 g, 1–(4-Fluorobenzyl)-4-(1E,4E)-5–(4-hydroxy-3-methoxyphenyl)-3-oxopenta-1,4-dien-1-yl)pyridin-1-ium bromide] | 1040 ± 81 | 65 | 16 ± 0.18 | 6 ± 0.031 | 6.1 ± 0.82 | 13.9 ± 0.68 | 22.5 ± 0.77 | 30.2 ± 1.86 | 52.1 ± 1.58
2 | COc1cc(/C=C/C(=O)/C=C/c2ccc[n+](Cc3ccc(F)cc3)c2)ccc1O [8 g, 1–(4-Fluorobenzyl)-3-(1E,4E)-5–(4-hydroxy-3-methoxyphenyl)-3-oxopenta-1,4-dien-1-yl)pyridin-1-ium bromide] | 1200 ± 97 | 79 | 16 ± 0.24 | 10 ± 0.025 | 6.1 ± 0.71 | 13.7 ± 0.52 | 24.7 ± 0.51 | 39.5 ± 0.38 | –
3 | O=C(/C=C/c1ccccc1)/C=C/c1cc[n+](Cc2ccc(F)cc2)cc1 [Compound 7b] | 1070 ± 80 | 21 | 52 ± 0.18 | 56 ± 0.016 | 0.5 ± 0.47 | 1.4 ± 0.07 | 3.3 ± 0.10 | 6.2 ± 0.50 | 7.1 ± 0.59
4 | COc1cc(/C=C/C(=O)/C=C/c2ccc[n+](Cc3ccccc3)c2)ccc1O [Compound 8f, 1-Benzyl-3-(1E,4E)-5–(4-hydroxy-3-methoxyphenyl)-3-oxopenta-1,4-dien-1-yl)pyridin-1-ium bromide] | 3500 ± 95 | – | 17 ± 0.17 | 16 ± 0.022 | 7.7 ± 0.97 | 15.8 ± 0.18 | 25.4 ± 0.57 | 39.3 ± 0.23 | –
